Test results as given in patent publication US8388939B2, “Moisturizing cosmetic composition comprising a combination of homarine and erythritol” (Sederma, S.A.S., priority 2008, dated 2013).

Test system: Human keratinocytes
Assay: Synergistic osmo-protective activity of homarine and erythritol after NaCl hyper-osmotic stress; UPTIBLUE cell count
Format: cell-based
Experimental: Human kerotinocytes were cultured for 24 h in a culture medium (DMEMc+FCS) than incubated until confluence was obtained. At this stage, the cells were putted in pre-contact with the compounds for 24 h. The day after, a 5h NaCl stress in the presence of the compounds was applied to the cells in the DMEMc medium (without FCS, with BSA) containing 150 mM of NaCl. After this stress, cells were rinced and were recovered with or without the compounds to be tested in the same medium as before (T0). Recovery was estimated at long term by measuring the survival at T5 days and at T7 days after the beginning of the stress (T0). The compounds were tested at the following concentrations: erythritol 0.6%, homarine 0.006% (corresponding to 1×) and homarine 0.06% (corresponding to 10×).
The UPTIBLUE technic was used to visualize and quantify the cell number after the hyper-osmotic shock and the osmo-protective effect of the compound was thus evaluated.

| SMILES | % of change in cell count versus control (post-stress) (T0, erythritol 0.6% alone) | % of change in cell count versus control (post-stress) (T5 days, erythritol 0.6% alone) | % of change in cell count versus control (post-stress) (T7 days, erythritol 0.6% alone) | Osmo-protective effect with regards a hyper-osmotic stress, in words (5 and 7 days after hyper-osmotic shock) | % of change in cell count versus control (post-stress) (T0, homarine 0.006% (1x), erythritol 0.6% where combined) | % of change in cell count versus control (post-stress) (T0, homarine 0.06% (10x), erythritol 0.6% where combined) | % of change in cell count versus control (post-stress) (T5 days, homarine 0.006% (1x), erythritol 0.6% where combined) | % of change in cell count versus control (post-stress) (T5 days, homarine 0.06% (10x), erythritol 0.6% where combined) | % of change in cell count versus control (post-stress) (T7 days, homarine 0.006% (1x), erythritol 0.6% where combined) | % of change in cell count versus control (post-stress) (T7 days, homarine 0.06% (10x), erythritol 0.6% where combined) |
| --- | --- | --- | --- | --- | --- | --- | --- | --- | --- | --- |
| OC[C@@H](O)[C@@H](O)CO [Erythritol] | −8% | +39% | +62% | – | – | – | – | – | – | – |
| C[n+]1ccccc1C(=O)[O-] [Homarine] | – | – | – | dose dependant | +10% | +14% | +33% | +93% | +26% | +130% |
